Test results: publication PMC8464070 (Nucleic Acids Research, 2021)
pKd: −log10 of the molar value. Several values for one entry are separate records, joined by “and”; a condition that tells them apart may be missing. Equal values may be shown once.

Experiments:
RslTpt1 [1] = target: T1, RslTpt1 (Runella slithyformis, UniProt A0A7U3ZK32); experiment: NMR ligand-induced chemical shift perturbations on RslTpt1; assay type: binding; details: for backbone chemical shift perturbations induced on RslTpt1 (result in words): 15N,1H HSQC, 10 molar equivalents of ligand
T1 sequence (A0A7U3ZK32 5-178): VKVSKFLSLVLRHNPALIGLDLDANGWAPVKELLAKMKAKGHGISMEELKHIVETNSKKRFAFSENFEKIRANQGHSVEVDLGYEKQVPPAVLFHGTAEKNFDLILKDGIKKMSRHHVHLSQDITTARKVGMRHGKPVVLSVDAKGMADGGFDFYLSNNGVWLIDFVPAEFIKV

RslTpt1 [2] = target: T1, RslTpt1; experiment: Isothermal titration calorimetry; assay type: binding

backbone chemical shift perturbations induced on RslTpt1 (result in words) (RslTpt1 [1]) | fold less affinity than NAD^+ (RslTpt1 [2]; ratio of ITC KD values, NADP^+ versus NAD^+) | pKd (RslTpt1 [2]; read-out: apparent KD, ITC, 17°C, approximate value) | average backbone amide chemical shift perturbation Δδ, N-lobe (RslTpt1 [1]; 15N,1H resonances, 4 molar equivalents of NADP^+) | SMILES
no significant CSPs |  |  |  | NC(=O)c1cccnc1 [Nicotinamide, nicotinamide]
no significant CSPs |  |  |  | NC(=O)c1ccc[n+]([C@@H]2O[C@H](COP(=O)([O-])O)[C@@H](O)[C@H]2O)c1 [NMN, β-nicotinamide mononucleotide]
 | ~30 fold | ~3.00 | 0.02 ± 0.03 ppm and 0.02 ppm | NC(=O)c1ccc[n+]([C@@H]2O[C@H](COP(=O)([O-])OP(=O)(O)OC[C@H]3O[C@@H](n4cnc5c(N)ncnc54)[C@H](OP(=O)(O)O)[C@@H]3O)[C@@H](O)[C@H]2O)c1 [NADP^+]
